# Reference: US5637725A, “Substituted aryl and cycloalkyl imidazolones; a new class of GABA brain receptor ligands” (Neurogen Corporation, priority 1995, dated 1997)
# Molecular target: GABAa receptor
# Test: [3H]-RO15-1788 (Flumazenil) binding assay for GABAa receptor activity, rat cortical tissue
# Conditions: 0.5 nM 3H-RO15-1788; rat cortical tissue homogenate; 30 min at 4° C.; nonspecific binding with 1.0 mM diazepam
# Description: The pharmaceutical utility of compounds of this invention are indicated by the following assay for GABAa receptor activity.
# Assays are carried out as described in Thomas and Tallman (J. Bio. Chem. 156: 9838-9842, J. Neurosci. 3: 433-440, 1983). Rat cortical tissue is dissected and homogenized in 25 volumes (w/v) of 0.05M Tris HCl buffer (pH 7.4 at 4° C.). The tissue homogenate is centrifuged in the cold (4°) at 20,000×g for 20'. The supernatant is decanted and the pellet is rehomogenized in the same volume of buffer and again centrifuged at 20,000×g. The supernatant is decanted and the pellet is frozen at -20° C. overnight. The pellet is then thawed and rehomogenized in 25 volume (original wt/vol) of buffer and the procedure is carried out twice. The pellet is finally resuspended in 50 volumes (w/vol of 0.05M Tris HCl buffer (pH 7.4 at […]).
# Incubations contain […] of radioligand 0.5 nM (^3 H-RO15-1788 [^3 H-Flumazenil] specific activity 80 Ci/mmol), drug or blocker and buffer to a total volume of […]. Incubations are carried for 30 min at 4° C. then are rapidly filtered through GFB filters to separate free and bound ligand. Filters are washed twice with fresh 0.05M Tris HCl buffer (pH 7.4 at 4° C.) and counted in a liquid scintillation counter. […] diazepam is added to some tubes to determine nonspecific binding. Data are collected in triplicate determinations, averaged and % inhibition of total specific binding is calculated. Total Specific Binding=Total-Nonspecific. In some cases, the amounts of unlabeled drugs is varied and total displacement curves of binding are carried out. Data are converted to a form for the calculation of IC50 and Hill Coefficient (nH).
row,Compound,Ki [nM]
1,O=c1[nH]c2c(n1-c1nc3ccc(F)c(F)c3o1)CCCCC2 [Compound 1],3
2,O=c1[nH]c2c(n1-c1nc3ccc(F)cc3o1)CCCCC2 [Compound 2],4.6
3,"O=c1[nH]c2cc(F)ccc2n1-c1nc2cccc(F)c2o1 [Compound 3, 3-(2-(7-fluorobenzoxazyl))-6-fluorobenzimidazol-2-(1H)-one]",14
4,"O=c1[nH]c2cc(F)ccc2n1-c1nc2ccc(F)cc2o1 [Compound 4, 3-(2-(6-fluorobenzoxazyl))-6-fluorobenzimidazol-2-(1H)-one]",5
5,O=c1[nH]c2c(n1-c1nc3ccc(F)c(F)c3o1)CCCC2 [Compound 5],21
6,COc1ccc2oc(-n3c4c([nH]c3=O)CCCC4)nc2c1 [Compound 6],81

# Test system: GABA receptor
# Test: not given
# Conditions: brain membranes; cited from earlier work
row,Compound,blockade of enhancement of benzodiazepine binding by GABA agonists
1,CN1CCc2cc3c(cc2[C@H]1[C@@H]1OC(=O)c2c1ccc1c2OCO1)OCO3 [(+) bicuculline],blocked
2,CN1CCc2cc3c(cc2[C@@H]1[C@H]1OC(=O)c2c1ccc1c2OCO1)OCO3 [(-) bicuculline],much less active
